Laboratory results taken from patent US8936941B2, “Compositions useful for cancer detection and treatment, a cancer stem cell model, and methods of production and use thereof” (priority 2008, dated 2015).
“Also recorded” adds a separate entry of the source.

Assays:
HCT116 tumor xenografts = assay: HCT116 tumor xenograft model in athymic nude mice, intratumoral treatment; type: in vivo
Excerpt: Real-time reverse transcription-PCR analyses. Total RNA isolated either from cells or from human colon cancer cell tumor xenograft samples was subjected to reverse transcription with Superscript™ II RNase H—Reverse Transcriptase and random hexanucleotide primers (Invitrogen, Carlsbad, Calif.). The cDNA was subsequently used to perform Real-time PCR by SYBR chemistry (SYBR® Green I; Molecular Probes) for specific transcripts using gene specific primers and Jumpstart Taq DNA polymerase (Sigma-Aldrich, St. Louis, Mo.). […] The changes in mRNA were expressed as fold change relative to control with ±SEM value.
miRNA analysis. Total miRNA was isolated using mirVana™ miRNA isolation kit (Ambion Inc.). Total miRNA isolated either from cells or from human colon cancer cell tumor xenograft samples were subjected to reverse transcription with Superscript™ II RNase H—Reverse Transcriptase and random hexanucleotide primers (Invitrogen, Carlsbad, Calif.). The cDNA was subsequently used to perform Real-time PCR by SYBR chemistry (SYBR® Green I; Molecular Probes) for pri-let-7a transcript using specific primers and Jumpstart Taq DNA polymerase (Sigma-Aldrich, St. Louis, Mo.). […] The changes in pri-miRNA were expressed as fold change relative to control with ±SEM value. Primers used are: […]
Western Blot analysis. HCT116 and SW480 cells were cultured in a 6 well plates to 40% confluency and were transfected with si-DCAMKL-1 or si-Scr for 72 h. Cells or the tumor xenograft samples were lysed and the concentration of protein was determined by BCA protein assay kit (Pierce Biotechnology Inc., Rockford, Ill.). […] The membrane was blocked in 5% non-fat dry milk for 1 h and probed overnight with a rabbit anti-DCAMKL-1 antibody (Abcam Inc., Cambridge, Mass.) or with rabbit anti-c-Myc antibody (Santa Cruz). Subsequently, the membrane was incubated with anti-rabbit or anti-goat IgG horseradish peroxidase-conjugated antibodies (Amersham-Pharmacia) for 1 h at room temperature. The 82 kDa DCAMKL-1 and 49 kDa c-Myc proteins were detected using ECL™ Western Blotting detection reagents (Amersham-Pharmacia). Actin (43 kDa), used as loading control was identified using a goat polyclonal IgG (Santa Cruz Biotechnology Inc., Santa Cruz, Calif.).
Immunohistochemistry. Heat Induced Epitope Retrieval was performed on 4 μm formalin-fixed paraffin-embedded sections utilizing a pressurized Decloaking Chamber (Biocare Medical) in citrate buffer (pH 6.0) at 99° C. for 18 min. (a) Brightfield: Slides were incubated in 3% hydrogen peroxide, then normal serum and BSA at room temperature for 20 min. After incubation with primary antibody [DCAMKL-1 C-terminal (Abcam), anti-c-Myc (Santa Cruz Biotechnologies), L-FABP (Santa Cruz Biotechnologies)], the slides were incubated in peroxidase-conjugated EnVision™+polymer detection kit (DAKO). Slides were developed with Diaminobenzidine (Sigma). (b) Fluorescence: Slides were first incubated in Image-iT FX signal enhancer (Invitrogen), followed by normal serum and BSA at room temperature for 20 min.
Xenograft tumor model. (a) Liposomal preparation: siRNA was administered into the xenografts after incorporation into 1,2-Dioleoyl-sn-Glycero-3-Phosphocholine (DOPC) (Avanti Polar Lipids, Alabaster, Ala.). DOPC and siRNA were mixed in the presence of excess tertiary butanol at a ratio of 1:10 (w/w) (siRNA/DOPC). Tween 20 (Sigma-Aldrich) was added to the mixture at a ratio of 1:19 Tween 20:siRNA/DOPC. The mixture was vortexed and frozen in an acetone/dry ice bath and lyophilized. Before administration, the siRNA preparation was reconstituted in 0.9% sterile saline and injected at a dose of 50 μl (5 μM) per injection. (b) Tumor therapy: Female athymic nude mice (NCr-nu) were purchased from the National Cancer Institute-Frederick Cancer Research and Development Center (Frederick, Md.) and housed in specific pathogen-free conditions.

let-7a miRNA [1] = assay: pLet7a-Luc luciferase reporter gene assay in SW480 cells; type: cell-based, human; details: normalized to Renilla luciferase
Experimental: Luciferase reporter gene assay. pLet7a-Luc reporter vector contains a let-7a miRNA specific binding site at the 3′UTR of the firefly (Photinus pyralis) luciferase gene obtained from Signosis Inc (FIG. 26). HCT116 and SW480 cells were transfected with the pLet7a-Luc reporter vector, Renilla luciferase expressing plasmid pRL-TK (Promega) along with DCAMKL-1 or scrambled siRNA using Transfectol™ (Ambion Inc.). Luciferase activity was determined as per the manufacturer's instructions (Dual-Luciferase Reporter Assay System; Promega) using a Monolight 2010 luminometer (Analytical Luminescence Laboratory, San Diego, Calif.) as described earlier [Stadler et al., 2008; Sossey-Alaoui et al., 1999]. The activity, normalized to Renilla Luciferase activity, is presented as relative luciferase units relative to control with ±SEM values. Assays were performed in triplicate wells and experiments were repeated 3 times.

let-7a miRNA [2] = assay: pLet7a-Luc luciferase reporter gene assay in AsPC-1 cells; type: cell-based, human
Excerpt: (§1) Luciferase Reporter Gene Assay: pLet7a-Luc reporter vector contains a let-7a miRNA specific binding site at the 3′ UTR of the firefly (Photinus pyralis) luciferase gene, pMiR-144-Luc reporter vector containing miR-144 miRNA specific binding site at the 3′UTR of the firefly luciferase gene and KRAS-Luc reporter vector containing specific binding sites for let-7 family members at the 3′UTR of the firefly luciferase gene were obtained from Signosis, Inc. (Sunnyvale, Calif.). Human pancreatic cancer cell lines were transfected with the pLet7a-Luc, pMiR-144-Luc and KRAS-Luc reporter vectors separately with Renilla luciferase expressing plasmid pRL-TK (Promega) along with DCAMKL-1, or scrambled siRNA-using siPORT™ NeoFX™ transfection reagent (Ambion, Inc.). Luciferase activity was determined as per the manufacturer's instructions (Dual Luciferase Reporter Assay System; Promega) using a BioTek Synergy HT (Winooski, Vt.) as described herein above. The activity, normalized to Renilla luciferase activity, is presented as relative luciferase units relative to control with ±SEM values. Assays were performed in triplicate wells, and experiments were repeated 3 times.

miR-144 miRNA = assay: pMiR-144-Luc luciferase reporter gene assay in AsPC-1 cells; type: cell-based, human
Excerpt: as §1

[3] = real-time RT-PCR, compared to control and si-Scr treated tumors

With “si-DCAMKL-1: siRNA targeting the coding region of DCAMKL-1 (NM_004734), sequence GGGAGUGAGAACAAUCUAC (SEQ ID NO:3) (chemistry not given here; listed as Homo sapiens)” as the substance, how does the “DCAMKL-1 protein in tumors” value (HCT116 tumor xenografts; Western blot) read?
The value was “reduced expression”.

What about the “Notch-1 and cleaved Notch-1 protein in tumors” value (HCT116 tumor xenografts; Western blot analysis) of the same substance?
Its value is “marked reduction”.

What about the “c-Myc protein in tumors” value (HCT116 tumor xenografts; Western blot and immunohistochemical analyses) of the same substance?
Its value is “striking reduction”.

What about the “reduction in Notch-1 mRNA in tumors” value (HCT116 tumor xenografts; compared to controls) of the same substance?
The value was 55%.

And the “reduction in c-Myc mRNA in tumors” value (HCT116 tumor xenografts; compared to controls)?
The value was 45%.

What about the “downregulation of DCAMKL-1 mRNA expression in tumors” value (HCT116 tumor xenografts; [3]) of the same substance?
The value was 55%.

And the “increase in pri-let-7a miRNA expression in tumors” value (HCT116 tumor xenografts; [3])?
Its value is over 3 fold.

And the “tumor size / xenograft growth” value (HCT116 tumor xenografts; siRNA in liposome preparation injected into tumors from day 15, every third day, 5 doses)?
Its value is “statistically significant reduction; also recorded: near complete tumor growth arrest”.

What about the tumor weight (HCT116 tumor xenografts; tumors excised at day 28, after 5 injections) of the same substance?
The tumor weight was “significantly decreased”.

And the “luciferase activity (let-7a binding site at 3' UTR)” value (let-7a miRNA [1])?
The value was “dose dependent reduction”.

What about the “luciferase activity (let-7a binding site in 3' UTR)” value (let-7a miRNA [2]) of the same substance?
The value was “dose-dependent reduction”.

What about the “luciferase activity (miR-144 binding site in 3' UTR)” value (miR-144 miRNA) of the same substance?
The value was “dose-dependent reduction”.
